Data published in ChEMBL document CHEMBL4825728, “Development of succinimide-based inhibitors for the mitochondrial rhomboid protease PARL” (Bioorg Med Chem Lett, 2021).
pIC50: −log10 of the molar value. Active and inactive are the calls of the source. The calls are words filed in the database; no cut-off is given here.

Tests used:
[1] = molecular target: T1, Presenilin-associated rhomboid-like protein, mitochondrial (Homo sapiens) (UniProt Q9H300); test: Inhibition of FLAG-tagged human PARL transfected in HEK293T cell membrane assessed as inhibition of FP-Rh labeling at 200 uM treated with compound prior to FP-Rh addition by competitive ABPP based analysis; type: cell membranes
T1 sequence (whole entry): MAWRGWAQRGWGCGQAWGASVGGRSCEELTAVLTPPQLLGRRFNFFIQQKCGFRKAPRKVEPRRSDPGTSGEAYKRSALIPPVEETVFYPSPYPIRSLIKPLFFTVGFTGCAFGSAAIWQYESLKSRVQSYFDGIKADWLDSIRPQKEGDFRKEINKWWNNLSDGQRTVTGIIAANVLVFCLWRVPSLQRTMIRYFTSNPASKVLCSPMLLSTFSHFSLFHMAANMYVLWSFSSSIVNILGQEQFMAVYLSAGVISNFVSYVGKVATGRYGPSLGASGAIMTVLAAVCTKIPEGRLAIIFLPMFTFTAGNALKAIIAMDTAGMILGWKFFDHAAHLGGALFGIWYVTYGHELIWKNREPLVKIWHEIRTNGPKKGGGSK

[2] = molecular target: T2, Rhomboid protease GlpG (Escherichia coli (strain K12)) (UniProt P09391); test: Inhibition of GlpG in Escherichia coli BL21 assessed as inhibition of FP-Rh labeling at 200 uM treated with compound prior to FP-Rh addition by competitive ABPP based analysis
T2 sequence (whole entry): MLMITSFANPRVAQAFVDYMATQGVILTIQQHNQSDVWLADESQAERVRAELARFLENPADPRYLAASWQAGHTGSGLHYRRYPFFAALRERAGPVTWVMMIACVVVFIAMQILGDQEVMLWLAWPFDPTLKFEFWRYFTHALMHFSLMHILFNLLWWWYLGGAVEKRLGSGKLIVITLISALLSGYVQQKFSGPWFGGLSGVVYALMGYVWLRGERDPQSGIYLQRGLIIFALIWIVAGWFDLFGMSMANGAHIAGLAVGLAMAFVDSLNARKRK

[3] = Solubility of the compound in HEK-293T cell membrane transfected with FLAG-tagged human PARL; type: ADME, cell membranes
[4] = molecular target: T3, Rhomboid protease GlpG (Escherichia coli (strain K12), UniProt P09391); test: Inhibition of GlpG in Escherichia coli BL21 assessed as inhibition of FP-Rh labeling treated with compound for 30 mins prior to FP-Rh addition by competitive ABPP based analysis
T3 sequence (P09391 whole entry): T2 sequence (whole entry)

[5] = molecular target: T4, Presenilin-associated rhomboid-like protein, mitochondrial (Homo sapiens, UniProt Q9H300); test: Inhibition of human PARL transfected in HEK293T cell membrane assessed as inhibition of FP-Rh labeling treated with compound for 30 mins prior to FP-Rh addition by competitive ABPP based analysis; type: cell membranes
T4 sequence (Q9H300 whole entry): T1 sequence (whole entry)

[6] = molecular target: T1, Presenilin-associated rhomboid-like protein, mitochondrial (Homo sapiens); test: Reversible inhibition of FLAG-tagged human PARL transfected in HEK293T cell membrane assessed as FP-Rh labeling at 200 uM treated with compound followed by gel filtration and later incubated for 4 hrs prior to FP-Rh labeling by competitive ABPP based analysis; type: cell membranes; parameters: Activity: scale not given: the % may be the effect or the level left
[7] = molecular target: T1, Presenilin-associated rhomboid-like protein, mitochondrial (Homo sapiens); test: Inhibition of FLAG-tagged human PARL transfected in HEK293T cell membrane assessed as inhibition of FP-Rh labeling at 100 uM incubated for 8 hrs followed by cells washing and lysis prior to FP-Rh labeling by In situ based analysis; type: cell membranes
[8] = molecular target: T1, Presenilin-associated rhomboid-like protein, mitochondrial (Homo sapiens); test: Inhibition of FLAG-tagged human PARL transfected in HEK293T cell membrane assessed as inhibition of FP-Rh labeling at 100 uM incubated for 24 hrs followed by cells washing and lysis prior to FP-Rh labeling by In situ based analysis; type: cell membranes
[9] = molecular target: T1, Presenilin-associated rhomboid-like protein, mitochondrial (Homo sapiens); test: Reversible inhibition of FLAG-tagged human PARL transfected in HEK293T cell membrane assessed as FP-Rh labeling at 200 uM treated with compound followed by gel filtration and later incubated for 4 hrs prior to FP-Rh labeling by western blot analysis; type: cell membranes

In the case of `O=S(=O)(F)Cc1ccccc1`, the inhibition [1] was “inactive” and the inhibition [2] was “inactive”.
With `O=C1c2ccccc2C(=O)N1S(=O)(=O)c1ccc([N+](=O)[O-])cc1` the solubility [3] was “Soluble”.
For `O=C(OCN1C(=O)c2ccccc2S1(=O)=O)c1ccccc1Cl`, the pIC50 [4] was 5.55, the pIC50 [5] was 5.06 and the inhibition [1] was 100%. The inhibition [2] was 100%, the Activity [6] was 20% and the inhibition [7] was greater than 50%. The inhibition [8] was “inactive”.
With `CC(C)S(=O)(=O)N1C(=O)c2ccccc2C1=O` the solubility [3] was “Soluble”.
In the case of `CS(=O)(=O)N1C(=O)CCC1=O`, the solubility [3] was “Soluble”.
With `O=C1c2ccccc2C(=O)N1S(=O)(=O)c1ccc2ccccc2c1` the solubility [3] was “Soluble”.
In the case of `O=C1CCC(=O)N1OS(=O)(=O)c1ccc2ccccc2c1`, the solubility [3] was “Soluble”.
In the case of `CS(=O)(=O)ON1C(=O)c2ccccc2C1=O`, the solubility [3] was “Soluble”.
For `CC(C)S(=O)(=O)N1C(=O)CCC1=O`, the solubility [3] was “Soluble”.
In the case of `Cc1ccc(S(=O)(=O)N[C@@H](Cc2ccccc2)C(=O)CCl)cc1`, the inhibition [1] was “inactive” and the inhibition [2] was “inactive”.
For `NCCc1ccc(S(=O)(=O)F)cc1`, the inhibition [1] was “inactive” and the inhibition [2] was “inactive”.
With `O=C1CCC(=O)N1S(=O)(=O)c1ccccc1` the solubility [3] was “Soluble”, the pIC50 [4] was less than 3.00 and the pIC50 [5] was 5.37. The inhibition [6] was “Active” and the inhibition [8] was “inactive”.
With `O=C1c2ccccc2C(=O)N1OS(=O)(=O)c1ccccc1` the solubility [3] was “Soluble”.
In the case of `COc1ccc(S(=O)(=O)ON2C(=O)c3ccccc3C2=O)cc1`, the solubility [3] was “Soluble”.
In the case of `O=C1CCC(=O)N1OS(=O)(=O)c1ccc(-c2ccccc2)cc1`, the solubility [3] was “Soluble”, the pIC50 [4] was 4.59 and the pIC50 [5] was 5.72.
With `O=C1CCC(=O)N1S(=O)(=O)c1ccc2ccccc2c1` the solubility [3] was “Soluble”.
For `O=C1c2ccccc2C(=O)N1S(=O)(=O)c1ccc(-c2ccccc2)cc1`, the solubility [3] was “Soluble”.
For `O=C1CCC(=O)N1OS(=O)(=O)c1ccc([N+](=O)[O-])cc1`, the solubility [3] was “Soluble”.
In the case of `COc1ccc(S(=O)(=O)N2C(=O)CCC2=O)cc1`, the solubility [3] was “Soluble”.
For `O=C1CCC(=O)N1S(=O)(=O)c1ccc([N+](=O)[O-])cc1`, the solubility [3] was “Soluble”, the pIC50 [4] was 3.51 and the pIC50 [5] was 6.05. The inhibition [7] was “Active” and the inhibition [8] was “inactive”.
With `O=C1CCC(=O)N1S(=O)(=O)c1ccc(-c2ccccc2)cc1` the solubility [3] was “Soluble”, the pIC50 [4] was 4.17 and the pIC50 [5] was 6.15.
In the case of `O=C1c2ccccc2C(=O)N1OS(=O)(=O)c1ccc2ccccc2c1`, the solubility [3] was “Soluble”.
For `CS(=O)(=O)N1C(=O)c2ccccc2C1=O`, the solubility [3] was “Soluble”.
With `CC(C)S(=O)(=O)ON1C(=O)c2ccccc2C1=O` the solubility [3] was “Soluble”.
In the case of `O=C1CCC(=O)N1OS(=O)(=O)c1ccccc1`, the solubility [3] was “Soluble”, the pIC50 [4] was 3.92 and the pIC50 [5] was 4.70. The inhibition [6] was “Active”, the inhibition [9] was “Active” and the inhibition [7] was greater than 50%. For the same compound, the inhibition [8] was “inactive”.
In the case of `O=C1c2ccccc2C(=O)N1OS(=O)(=O)c1ccc(-c2ccccc2)cc1`, the solubility [3] was “Soluble”.
For `CS(=O)(=O)ON1C(=O)CCC1=O`, the solubility [3] was “Soluble”.
In the case of `O=c1oc(Cl)c(Cl)c2ccccc12`, the inhibition [1] was “Active” and the inhibition [2] was “Active”.
In the case of `CC(C)S(=O)(=O)ON1C(=O)CCC1=O`, the solubility [3] was “Soluble”.
In the case of `O=C1c2ccccc2C(=O)N1OS(=O)(=O)c1ccc([N+](=O)[O-])cc1`, the solubility [3] was “Soluble”.
For `COc1ccc(S(=O)(=O)ON2C(=O)CCC2=O)cc1`, the solubility [3] was “Soluble”.
For `COc1ccc(S(=O)(=O)N2C(=O)c3ccccc3C2=O)cc1`, the solubility [3] was “Soluble”.
For `O=C1c2ccccc2C(=O)N1S(=O)(=O)c1ccccc1`, the solubility [3] was “Soluble”.
